Data set [1] can be described thus: Viability assay (MTT cytotoxicity). To be noted: human; for CC50 at 48 h: hela-p4 cells, 2 days. In kind it is cell-based. The procedure:
The cytotoxicity of compounds was evaluated using un-infected and infected HeLa-P4 cell and CEM leukemia cells. CEM cell were obtained from the American Type Tissue Collection (Rockville, MD).
A serial dilution of drugs is done to evaluate the cytotoxicity concentration and is identified by CC50 (concentration of drug which induces 50% of cytotoxicity)
The HeLa-P4 was cultured in the presence or absence of compounds for 2 days. After this time period, cells were cultivated with MTT for 3 hours, further the medium is removed. And the lysis buffer is incubated for 1 hour, followed by plate reading at 540 nm in a microplate reader.

Data set [2] has as its target T1, HBX2 HIV integrase (Human immunodeficiency virus type 1 group M subtype B, UniProt P04585).
T1 construct: The pET-15b-IN plasmid contains the cDNA encoding the HBX2 HIV integrase; His tag (N, cleaved yes); made in house; host or cells: Escherichia coli BL21 (DE3)
The experiment in a line: 3' LTR Processing Assay. In kind it is biochemical. How it is done: (§1) The pET-15b-IN plasmid contains the cDNA encoding the HBX2 HIV integrase. His-tagged integrase protein was overexpressed in Escherichia coli BL21 (DE3) and purified under native conditions. Briefly, at an OD of 0.8, fusion protein expression was induced in bacterial cultures by the addition of IPTG (1 mM). Cultures were incubated for 3 h at […], after which cells were centrifuged. The cell pellet was resuspended in ice-cold buffer A [20 mM Tris-HCl (pH 8), 1 M NaCl, 4 mM β-mercaptoethanol, and 5 mM imidazole], treated with lysozyme for 1 h on ice, and sonicated. After centrifugation (30 min at 10 000 rpm), the supernatant was filtered (0.45 µm) and incubated for at least 2 h with Ni-NTA agarose beads (Pharmacia). The beads were washed twice with 10 volumes of buffer A, 10 volumes of buffer A with 50 mM imidazole, and 10 volumes of buffer A with 100 mM imidazole. His-tagged integrase was then eluted with buffer A supplemented with 50 µM ZnSO4 and 1 M imidazole. The integrase concentration was adjusted to 0.1 mg/mL in buffer A. The fusion protein was cleaved using thrombin and dialyzed overnight against 20 mM Tris-HCl (pH 8), 1 M NaCl, and 4 mM β-mercaptoethanol. After removal of biotinylated thrombin by incubation with streptavidin-agarose magnetic beads (Novagen, Madison, WI), a second dialysis was performed for 2 h against 20 mM Tris-HCl (pH 8), 1 M NaCl, 4 mM β-mercaptoethanol, and 20% (v/v) ethylene glycol. Fractions were aliquoted and rapidly frozen at -80°C.
(§2) Oligonucleotides U5B (5'-[…]-3'), U5B-2 (5'-GTGTGGAAAATCTCTAGCA-3'), U5A (5'-[…]-3') were purchased from Eurogentec (Liege, Belgium) and further purified on an 18% denaturing acrylamide/urea gel. For processing, strand transfer, 100 pmol of U5B, U5B-2, respectively, were radiolabeled using T4 polynucleotide kinase and 50 µCi of [γ-32P]ATP (3000 Ci/mmol). […]
Processing reaction was performed using U5A-U5B, in buffer containing 20 mM Tris (pH 7.2), 50 mM NaCl, 10 mM DTT, and 10mM MgCl2. […] Gels were analyzed using a STORM Molecular Dynamics phosphorimager and quantified with Image Quant™ 4.1 software.

Data set [3] has as its target T1, HBX2 HIV integrase. The data set is described as follows: Strand Transfer Assay. In kind it is biochemical. The procedure: as §1, §2
Processing, strand transfer reactions were performed using U5A-U5B-2, in buffer containing 20 mM Tris (pH 7.2), 50 mM NaCl, 10 mM DTT, 10mM MgCl2. […] Gels were analyzed using a STORM Molecular Dynamics phosphorimager and quantified with Image Quant™ 4.1 software.

For data set [4], the system named is wild type HIV-1 virus (NL 4.3 strains). The data set is described as follows: Antiviral activity assay on Hela P4 cells. In kind it is cell-based. To be noted: Human immunodeficiency virus 1, HeLaP4, 48 h, read-out: P4 IC50 (µM). The procedure: The antiviral activity is determined by infecting HelaP4 cells with a wild type HIV-1 virus (NL 4.3 strains at 3 ng) on cells in presence or absence of drugs.
A serial dilution of drugs is done to evaluate the EC50. The effective concentration is the concentration of product at which virus replication is inhibited by 50 percent.
After 48 hours incubation, the quantification is done by the evaluation of β-Galactosidase produced by the infected Hela P4 cells. The viral activity is evaluated by colorimetric assay, CPRG, followed by plate reading at 570 nm with a reference of 690 nm. The CPRG test is a colorimetric assay which allows to quantity the β-galactosidase produced by HIV-1 infected indicator cells (the β-Gal gene being under the control of the HIV-1 LTR).

For data set [5] the test system is unchanged. The data set is described as follows: Antiviral activity assay CEM cells. The settings on record: Human immunodeficiency virus 1, CCRF-CEM. The class given is cell-based. How it is done:
The activity is determined by infecting CEM cells with a wild type HIV-1 virus (NL 4.3 strains at 3ng) on cells in presence or absence of drugs.
A serial dilution of drugs is done to evaluate the EC50.
The effective concentration is the concentration of product at which virus replication is inhibited by 50 percent.
After 48 hours incubation, the quantification is done by the evaluation of the viral protein p24 with a commercial Elisa Kit. P24 is a protein essential to the replication virus cycle. The quantification of this enzyme is proportional to the amount of virus produced by the infected cells.

Setting [6] is: U5A-U5B substrate DNA 12.5 nM, IN 200 nM, 10mM MgCl2, up to 2 h at 37°C, read-out: Processing IC50.
[7] abbreviates: U5A-U5B-2 substrate DNA 12.5 nM, IN 200nM, 10mM MgCl2, up to 2 h at 37°C, read-out: Transfert IC50.

Like-named read-outs stand apart in the source and are kept apart here.

Take `COc1cc(/C=C/c2ccc3ccc(C(=O)O)c(O)c3n2)cc(O)c1O` [FZ41, reference compound]: the CC50 at 48 h in data set [1] (comparative example, read-out: Cytoto-IC50 IC50) was greater than 100000 nM.
Turning to `O=C(O)c1ccc2ccc(/C=C/c3cc(O)c(O)c(Cl)c3)nc2c1O` [SQE41, (E)-2-(3-chloro-4,5-dihydroxystyryl)-8-hydroxyquinoline-7-carboxylic acid], the concentration for half-maximal inhibition (IC50) was 280 nM against HBX2 HIV integrase [2], 280 nM against HBX2 HIV integrase [3] and 5 µM in data set [4]. Besides, the EC50 in data set [5] (CEM cells, NL 4.3, 48 hours, p24 Elisa, read-out: CEM) is 36 µM. In data set [1] (HeLa-P4 cells), this compound yielded an IC50 at 2 days of 22500 nM.
Turning to `COc1cc(/C=C/c2ccc3ccc(Br)c(O)c3n2)cc(O)c1O` [SQE63], the IC50 on HBX2 HIV integrase [2] (setting [6]) stood at 950 nM; at HBX2 HIV integrase [3] (setting [7]), 950 nM; in data set [4], 0.82 µM. In data set [5] (48 h, read-out: CEM (µM)), the EC50 stood at 2.8 µM. The CC50 at 48 h in data set [1] (read-out: Cytotoxicity IC50) came to 11700 nM.
With `O=C(O)c1ccc2ccc(/C=C/c3cc(O)c(O)c([N+](=O)[O-])c3)nc2c1O` [SQE67], the IC50 was determined as 150 nM on HBX2 HIV integrase [2] (setting [6]), 180 nM on HBX2 HIV integrase [3] (setting [7]) and 6.2 µM in data set [4]. Further, the EC50 in data set [5] (48 h, read-out: CEM (µM)) turned out to be 42 µM. The CC50 at 48 h in data set [1] (read-out: Cytotoxicity IC50) was 35000 nM.

The record behind these values is patent publication EP2147913A1, “Styrylquinolines, their process of preparation and their therapeutic uses” (BioAlliance Pharma, priority 2008, dated 2010).
